Test results as given in patent publication EP4696688A1, “BENZO-FUSED RING COMPOUND INHIBITOR, AND PREPARATION METHOD THEREFOR AND USE THEREOF” (Shanghai Hansoh Biomedical Co., Ltd., priority 2023, dated 2024).

Experiments:
human CYP11B2 = target: T1, human CYP11B2 (Homo sapiens, UniProt P19099); assay: G-402 cell enzyme experiment, CYP11B2 (aldosterone product, HTRF); format: cell-based; settings: G-402 cells stably expressing human CYP11B2, 1 µM 11-deoxycorticosterone, 16 h
T1 construct: The main elements of an expression plasmid include ORF of human CYP11B1 or human CYP11B2; expressed in transfected cells
T1 sequence (P19099 25-503): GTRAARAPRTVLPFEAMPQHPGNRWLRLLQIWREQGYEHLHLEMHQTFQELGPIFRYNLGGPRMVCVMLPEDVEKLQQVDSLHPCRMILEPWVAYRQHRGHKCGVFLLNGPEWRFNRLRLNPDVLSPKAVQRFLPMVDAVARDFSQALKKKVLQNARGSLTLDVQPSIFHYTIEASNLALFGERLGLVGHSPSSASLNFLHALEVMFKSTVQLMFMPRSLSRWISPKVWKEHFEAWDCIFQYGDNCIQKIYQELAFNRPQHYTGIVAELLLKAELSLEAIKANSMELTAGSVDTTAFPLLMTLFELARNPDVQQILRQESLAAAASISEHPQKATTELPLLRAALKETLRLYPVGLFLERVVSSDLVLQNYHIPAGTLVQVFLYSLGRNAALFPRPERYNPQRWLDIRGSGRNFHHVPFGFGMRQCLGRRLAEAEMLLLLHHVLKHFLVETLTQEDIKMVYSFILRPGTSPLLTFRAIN
Text: (§1) G-402 cell line was used as host cells to express (by transient or stable transfection) an enzyme of the human CYP11 family. Specifically, G-402 cell lines stably expressing human CYP11B1 and human CYP11B2 were established respectively. […] Therefore, the G-402 cell line is very suitable as a host cell for the ectopic expression of an enzyme of the CYP11 family.
(§2) The G-402 cell line, originally derived from renal myoblastoma, can be obtained from ATCC (CRL-1440). The main elements of an expression plasmid include ORF of human CYP11B1 or human CYP11B2, a suitable promoter (CMV promoter), and a suitable resistance marker (neomycin). The expression plasmid was transfected into G-402 cells by standard technology, and a specific antibiotic was then given for screening. The activity of the enzyme expressed by the screened monoclonal cells was assessed by 11-deoxycorticosterone (substrate of CYP11B2) and 11-deoxycortisol (substrate of CYP11B1).
(§3) The G-402 cells expressing CYP11 plasmid, as established in the above solution, were cultured in McCoy's 5a Modified Medium (ATCC Catalog No. 30-2007) containing 10% FCS and 400 µg/ml G418 in an incubator at 37°C and 5% CO2. A cell enzyme experiment was carried out using DMEM/F12 medium containing 2.5% charcoal-treated FBS and an appropriate concentration of a substrate (1 µM 11-deoxycorticosterone or 1 µM 11-deoxycortisol). In order to detect the activity of the enzyme in the cells, the cells were plated in a 96-well plate and incubated for 16 h. The supernatant was then transferred and analyzed for the concentration of the expected product (the product of CYP11B2: aldosterone; the product of CYP11B1: cortisol). The concentrations of these products were determined by an HTRF experiment of CisBio.
(§4) In the cell enzyme experiment, the inhibitory effect of the test compound on the generated product can reflect the inhibitory effect thereof on the enzyme. The dose-dependent inhibition of the enzyme activity by the compound was calculated by plotting the concentration of the test compound (x axis) versus the measured product level (y axis). Then, the original data was fitted to a 4-parameter sigmoidal function (Morgan-Mercer-Flodin, MMF model) by least square method: y = (AB + Cx^D) / (B + x^D) in which A is the maximum y value, B is the EC50 determined by XLFit, C is the minimum y value, and D is the slope value. The maximum value A corresponds to the amount of the product detected without an inhibitor, and C corresponds to the amount of the product detected in the G402 cells expressing an empty plasmid.
(§5) The EC50 value of the compound of the present invention was determined by the above G-402 experiment system. The activity of the CYP11B2 enzyme was determined under the conditions of 1 µM 11-deoxycorticosterone and a variable amount of the inhibitor, and the activity of the CYP11B1 enzyme was determined under the conditions of 1 µM 11-deoxycortisol and a variable amount of the inhibitor.

human CYP11B1 = target: T2, human CYP11B1 (Homo sapiens, UniProt P15538); assay: G-402 cell enzyme experiment, CYP11B1 (cortisol product, HTRF), selectivity versus CYP11B2; format: cell-based; settings: human selective factor: ratio of CYP11B1 EC50 to CYP11B2 EC50; G-402 cells
T2 construct: The main elements of an expression plasmid include ORF of human CYP11B1 or human CYP11B2; expressed in transfected cells
T2 sequence (P15538 25-503): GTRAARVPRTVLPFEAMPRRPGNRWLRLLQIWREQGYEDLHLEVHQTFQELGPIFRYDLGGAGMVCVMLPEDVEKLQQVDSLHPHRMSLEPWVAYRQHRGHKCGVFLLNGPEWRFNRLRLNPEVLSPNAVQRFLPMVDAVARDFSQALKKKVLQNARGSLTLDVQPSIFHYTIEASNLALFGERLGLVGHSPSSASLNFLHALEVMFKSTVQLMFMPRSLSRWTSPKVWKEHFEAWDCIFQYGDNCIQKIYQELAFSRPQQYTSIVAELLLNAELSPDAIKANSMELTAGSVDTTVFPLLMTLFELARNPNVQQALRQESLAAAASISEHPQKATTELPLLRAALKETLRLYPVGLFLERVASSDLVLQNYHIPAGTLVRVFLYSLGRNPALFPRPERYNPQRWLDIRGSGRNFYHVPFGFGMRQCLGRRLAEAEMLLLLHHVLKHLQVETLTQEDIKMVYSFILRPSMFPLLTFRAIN
Text: as §1, §2, §3, §4, §5

Row | Compound | EC50 (human CYP11B2) | hsF (human CYP11B1)
1 | CCC(=O)N1CC2(C1)CN(c1cncc(-c3ccc4nc(OC)ccc4c3)c1)C2 [Example 36, 1-(6-(5-(2-methoxyquinolin-6-yl)pyridin-3-yl)-2,6-diazaspiro[3.3]heptan-2-yl)propan-1-one] | 26 nM | 2766x
2 | CCC(=O)NC1CCCc2c(-c3cc(F)c4c(c3)CCc3nncn3-4)cncc21 (stereo not drawn) [Example 37, N-(4-(9-fluoro-4,5-dihydro-[1,2,4]triazolo[4,3-a]quinolin-7-yl)-5,6,7,8-tetrahydroisoquinolin-8-yl)propanamide] | 35 nM | –
3 | COc1ccc2cc(-c3cncc(N4CC5(CN(C(=O)c6cnn(C7CC7)c6)C5)C4)c3)ccc2n1 [Example 43, (1-cyclopropyl-1H-pyrazol-4-yl)(6-(5-(2-methoxyquinolin-6-yl)pyridin-3-yl)-2,6-diazaspiro[3.3]heptan-2-yl)methanone] | 50 nM | > 4023x
4 | COc1ccc2cc(-c3cncc(N4CC5(CCN(C(=O)c6cnn(C)c6)C5)C4)c3)ccc2n1 [Example 51, (2-(5-(2-methoxyquinolin-6-yl)pyridin-3-yl)-2,6-diazaspiro[3.4]octane-6-yl)(1-methyl-1H-pyrazol-4-yl)methanone] | 24 nM | 157x
5 | CCC(=O)NC1CC2(C1)CN(c1cncc(-c3ccc4nc(OC)ccc4c3)c1)C2 [Example 64, N-(2-(5-(2-methoxyquinolin-6-yl)pyridin-3-yl)-2-azaspiro[3.3]heptan-6-yl)propanamide] | 32 nM | –
6 | CCC(=O)N[C@@H]1CCCc2c(-c3ccc4c(c3)sc(=O)n4C)cncc21 [Example 65, (R)-N-(4-(3-methyl-2-oxo-2,3-dihydrobenzo[d]thiazol-6-yl)-5,6,7,8-tetrahydroisoquinolin-8-yl)propanamide] | 89 nM | –
7 | CCC(=O)Nc1cccc2c(-c3ccc4nc(OC)ccc4c3)cncc12 [Example 68, N-(4-(2-methoxyquinolin-6-yl)isoquinolin-8-yl)propanamide] | 33 nM | –
8 | COCC(=O)N1CC2(C1)CN(c1cncc(-c3ccc4nc(OC)ccc4c3)c1)C2 [Example 80, 2-methoxy-1-(6-(5-(2-methoxyquinolin-6-yl)pyridin-3-yl)-2,6-diazaspiro[3.3]heptan-2-yl)ethan-1-one] | 17 nM | –
9 | CCS(=O)(=O)N1CC(Oc2cncc(-c3ccc4c(c3)sc(=O)n4C)c2)C1 [Example 90, 6-(5-((1-(ethylsulfonyl)azetidin-3-yl)oxy)pyridin-3-yl)-3-methylbenzo[d]thiazol-2(3H)-one] | 23 nM | –

Stronger by EC50 (human CYP11B2), values ahead:

Row | EC50 (human CYP11B2) | hsF (human CYP11B1) | Compound
10 | 13 nM | 2541x | COc1ccc2cc(-c3cncc(NC4CN(C(=O)c5cnn(C)c5)C4)c3)ccc2n1 [Example 40, (3-((5-(2-methoxyquinolin-6-yl)pyridin-3-yl)amino)azetidin-1-yl)(1-methyl-1H-pyrazol-4-yl)methanone]
11 | 10 nM | – | [2H]C([2H])([2H])N(C(=O)c1cnn(C)c1)C1CCN(c2cncc(-c3ccc4nc(OC)ccc4c3)c2)CC1 [Example 72, N-(1-(5-(2-methoxyquinolin-6-yl)pyridin-3-yl)piperidin-4-yl)-1-methyl-N-(methyl-d3)-1H-pyrazole-4-carboxamide]
12 | 9 nM | – | CN(c1cncc(-c2ccc3c(c2)sc(=O)n3C)c1)C1CN(C(=O)c2cnn(C)c2)C1 [Example 89, 3-methyl-6-(5-(methyl(1-(1-methyl-1H-pyrazole-4-carbonyl)azetidin-3-yl)amino)pyridin-3-yl)benzo[d]thiazol-2(3H)-one]
13 | 8 nM | – | COc1ccc2cc(-c3cncc(N4CCN(C(=O)c5cnn(C)c5)CC4)c3)ccc2n1 [Example 50, (4-(5-(2-methoxyquinolin-6-yl)pyridin-3-yl)piperazin-1-yl)(1-methyl-1H-pyrazol-4-yl)methanone]
14 | 4 nM | – | COc1ccc2cc(-c3cncc(N4CCC(NC(=O)c5cnn(C)c5)CC4)c3)ccc2n1 [Example 71, N-(1-(5-(2-methoxyquinolin-6-yl)pyridin-3-yl)piperidin-4-yl)-1-methyl-1H-pyrazole-4-carboxamide]
